From patent US12239651B2, “Treatment of hearing loss” (Massachusetts Eye and Ear Infirmary, priority 2018, dated 2025)
“Also recorded” adds a separate entry of the source.

Tests used:
[1] = system: adult rtTA/tet-NICD cochlea; assay: Proliferation and HC regeneration in Dox-treated adult rtTA/tet-NICD cochlea culture with ad-Atoh1; assay type: cell-based, mouse; settings: for EdU+ (proliferating) cells: Dox (NICD activation) plus MHY1485, ad-Atoh1, vs Dox alone/DMSO controls, SE and Lib; for HC regeneration by ad-Atoh1 (new HCs, MYO7A+/PVALB+): Dox (NICD activation) plus MHY1485 and ad-Atoh1 vs Dox and ad-Atoh1 without MHY1485
Text: (§1) Survival was studied by analysis of apoptosis.
The prominent roles in proliferation and cell growth by mTOR provided evidence that it may compensate for part of the MYC functions. To determine if mTOR activation is sufficient to replace MYC to induce proliferation in adult cochlea, mTOR was activated in Dox-treated rtTA/tet-NICD adult cochlea culture by MHY1485, a small molecule mTOR activator^8 (FIG. 1K).
(§2) To evaluate if mTOR is sufficient to induce proliferation, wildtype adult mouse cochlea were cultured and treated with MYH1485 to activate mTOR pathway followed by ad-Atoh1 infection for hair cell regeneration. […] Thus activation of mTOR by MHY1485 is sufficient to induce proliferation in adult/mature cochlea and it improves hair cell regeneration efficiency mediated by Atoh1.

[2] = system: wildtype adult mouse cochlea; assay: Proliferation and hair cell regeneration in cultured adult wildtype cochlea with ad-Atoh1; assay type: cell-based; settings: wildtype adult cochlea culture, ad-Atoh1 infection 14 days, MHY1485 treated vs ad-Atoh1 only
Protocol: as §1, §2

[3] = system: adult rtTA/tet-MYC/tet-NICD cochlea; settings: 6 days Dox with vs without rapamycin, in vitro; SE and Lib regions
Text: SOX2 labeled SCs. […] Arrows pointed to SOX2^+/EdU^+/p-rpS6^+ cells. […] Error bar, mean±SEM; n=5. […] Error bar, mean±SEM; n=5. (FIG. 1K) A diagram illustrating the study of the effect of mTOR activator MHY1485 on proliferation and HC regeneration. […] (FIGS. 1N-1O) Quantification of EdU^+ cells, MYO7A^+ HCs and ectopic HCs in 1-m″. *p<0.05, Student's t-test. Error bar, mean±SEM; n=5.
Whole cochlea explant organ culture and microinjection into adult cochlea were used for the study in vitro and in vivo, respectively. NOTCH1 and c-MYC were activated in adult wild type mice by virus-mediated delivery, or in adult doxycycline-inducible rtTA/tet-MYC/tet-NICD transgenic mice through supplement of doxycycline in vitro and in vivo. EdU and BrdU incorporation was used to study proliferation. Lineage tracing using Sox2-promoter-driven Cre mice (Sox2-CreER) crossed with the tdTomato (tdT) reporter mice was conducted to identify the origin of proliferating cells. The mechanisms underlying reprograming were studied by qRT-PCR, immunolabeling and the effectors that modulate mTOR pathway. Survival was studied by analysis of apoptosis.
It was hypothesized that the reprogramming effect in adult cochlea by MYC/NICD may be mediated in part by the mTOR pathway.

SMILES	EdU+ (proliferating) cells [1]	EdU+ (proliferating) cells ([1]; listed as MHY 1485)	HC regeneration by ad-Atoh1 (new HCs, MYO7A+/PVALB+) [1]	HC regeneration by ad-Atoh1 (new HCs, MYO7A+/PVALB+) ([1]; listed as MHY 1485)	HC regeneration by ad-Atoh1 (new HCs, MYO7A+/PVALB+) ([1]; listed as MYH1485)	number of EdU+ cells compared with Myc/NICD co-activation ([1]; NICD activation and MHY1485 treatment vs Myc/NICD co-activation)	EdU labeled (proliferating) cochlear cells [2]	hair cell regeneration (PVALB+/MYO7a+) [2]	EdU labeled (proliferating) cochlear cells ([2]; listed as MHY 1485)	number of EdU+ cells induced by Myc/NICD co-activation [3]
O=[N+]([O-])c1ccc(Nc2nc(N3CCOCC3)nc(N3CCOCC3)n2)cc1 [MHY1485]	observed in the sensory epithelium and the limbus regions; also recorded: most proliferating cells; also recorded: Significantly more	most proliferating cells	most regenerated hair cells; also recorded: Significantly more	most proliferating cells and hair cells	more HC regeneration	fewer	numerous proliferating cells	More hair cells were regenerated; also recorded: enhanced hair cell regeneration	Abundant EdU labeled cochlear cells	
COc1ccc(C[C@H](N)C(=O)N[C@H]2[C@@H](O)[C@H](n3cnc4c(N(C)C)ncnc43)O[C@@H]2CO)cc1 [puromycin]										suppresses proliferation
